Numbers after ± are expanded uncertainties.
What was measured:
[1] = xn = mol fraction of the nth substance listed; settings: 101 kPa, Liquid; for viscosity: Capillary tube (Ostwald / Ubbelohde) method; for speed of sound: Frequency=3 MHz, Linear variable-path acoustic interferometer
[2] = 101 kPa, Liquid; for viscosity: Capillary tube (Ostwald / Ubbelohde) method; for speed of sound: Frequency=3 MHz, Linear variable-path acoustic interferometer

C1COCCO1 [1,4-dioxane] + Cc1ccc(C)cc1
[1], x1 = 1
Settings	speed of sound [m/s]	viscosity [mPa·s]
293.15 K	1367.2 ± 1.7	1.306 ± 0.027
298.15 K	1344.7 ± 1.7	1.195 ± 0.025
303.15 K	1323.1 ± 1.7	1.096 ± 0.023
308.15 K	1301.2 ± 1.7	1.014 ± 0.021
313.15 K	1279.7 ± 1.6	0.945 ± 0.02
318.15 K	1258.6 ± 1.6	0.884 ± 0.018

C1COCCO1 [1,4-dioxane] + Cc1cccc(C)c1
[1], x1 = 1
Settings	speed of sound [m/s]	viscosity [mPa·s]
293.15 K	1367.2 ± 1.7	1.306 ± 0.027
298.15 K	1344.7 ± 1.7	1.195 ± 0.025
303.15 K	1323.1 ± 1.7	1.096 ± 0.023
308.15 K	1301.2 ± 1.7	1.014 ± 0.021
313.15 K	1279.7 ± 1.6	0.945 ± 0.02
318.15 K	1258.6 ± 1.6	0.884 ± 0.018

C1COCCO1 [1,4-dioxane] + Cc1ccccc1C
[1], x1 = 1
Settings	speed of sound [m/s]	viscosity [mPa·s]
293.15 K	1367.2 ± 1.7	1.306 ± 0.027
298.15 K	1344.7 ± 1.7	1.195 ± 0.025
303.15 K	1323.1 ± 1.7	1.096 ± 0.023
308.15 K	1301.2 ± 1.7	1.014 ± 0.021
313.15 K	1279.7 ± 1.6	0.945 ± 0.02
318.15 K	1258.6 ± 1.6	0.884 ± 0.018

c1ccccc1 [benzene]
[2]
Settings	speed of sound [m/s]	viscosity [mPa·s]
293.15 K	1324.4 ± 1.6	0.647 ± 0.013
298.15 K	1299.5 ± 1.6	0.6048 ± 0.013
303.15 K	1275.7 ± 1.6	0.5672 ± 0.012
308.15 K	1252.4 ± 1.6	0.5322 ± 0.011
313.15 K	1229.3 ± 1.6	0.498 ± 0.01
318.15 K	1207.8 ± 1.6	0.4672 ± 0.0098

c1ccccc1 [benzene] + C1COCCO1
[1], x2 = 0
Settings	speed of sound [m/s]	viscosity [mPa·s]
293.15 K	1324.4 ± 1.6	0.647 ± 0.013
298.15 K	1299.5 ± 1.6	0.6048 ± 0.013
303.15 K	1275.7 ± 1.6	0.5672 ± 0.012
308.15 K	1252.4 ± 1.6	0.5322 ± 0.011
313.15 K	1229.3 ± 1.6	0.498 ± 0.01
318.15 K	1207.8 ± 1.6	0.4672 ± 0.0098

Cc1ccccc1 [toluene]
[2]
Settings	speed of sound [m/s]	viscosity [mPa·s]
293.15 K	1328.6 ± 1.6	0.5885 ± 0.012
298.15 K	1307.3 ± 1.6	0.5541 ± 0.012
303.15 K	1285.5 ± 1.6	0.5232 ± 0.011
308.15 K	1264.2 ± 1.6	0.495 ± 0.01
313.15 K	1242.4 ± 1.6	0.4662 ± 0.0098
318.15 K	1220.7 ± 1.6	0.4384 ± 0.0092

Cc1ccccc1 [toluene] + C1COCCO1
[1], x2 = 0
Settings	speed of sound [m/s]	viscosity [mPa·s]
293.15 K	1328.6 ± 1.6	0.5885 ± 0.012
298.15 K	1307.3 ± 1.6	0.5541 ± 0.012
303.15 K	1285.5 ± 1.6	0.5232 ± 0.011
308.15 K	1264.2 ± 1.6	0.495 ± 0.01
313.15 K	1242.4 ± 1.6	0.4662 ± 0.0098
318.15 K	1220.7 ± 1.6	0.4384 ± 0.0092
